PubChem BioAssay AID330 (DTP/NCI, 2004)
Values joined by “and” are separate entries in the source; they are usually repeats but may differ in a detail not shown here. Equal entries are not always repeated. Toxic doses and inconclusive results are not listed. Peptide text beside a SMILES is read from it. * marks the point of attachment. Trt = c1ccc(C(c2ccccc2)(c2ccccc2)*)cc1; Benzhydryl = c1ccc(C(c2ccccc2)*)cc1; Cbz = O=C(OCc1ccccc1)*

Tested on: P388 leukemia ip, CD2F1 mice, survival T/C
Experiment: NCI In Vivo Anticancer Drug Screen. Data for tumor model P388 Leukemia (intraperitoneal) in CD2F1 (CDF1) mice
Details: endpoint: median survival time, higher = longer survival
Procedure, shortened: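 Mice carrying the transplanted tumor received test compound or vehicle. Survival was recorded in each group, and the value is the treated-group measurement divided by that of the vehicle-treated control group.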

[1] = dose: 50.0 mg/kg/injection, schedule: Q01DX009 (ip), vehicle: Klucel (hydroxypropylcellulose) (HPC)
[2] = dose: 100.0 mg/kg/injection, schedule: Q01DX009 (ip), vehicle: Klucel (hydroxypropylcellulose) (HPC)
[3] = dose: 200.0 mg/kg/injection, schedule: Q01DX009 (ip), vehicle: Klucel (hydroxypropylcellulose) (HPC)
[4] = dose: 200.0 mg/kg/injection, schedule: Q04DX003 (ip), vehicle: Klucel (hydroxypropylcellulose) (HPC)
[5] = dose: 100.0 mg/kg/injection, schedule: Q04DX003 (ip), vehicle: saline
[6] = dose: 200.0 mg/kg/injection, schedule: Q04DX003 (ip), vehicle: saline
[7] = dose: 400.0 mg/kg/injection, schedule: Q04DX003 (ip), vehicle: saline
[8] = dose: 50.0 mg/kg/injection, schedule: Q01DX009 (ip), vehicle: saline with Tween-80
[9] = dose: 100.0 mg/kg/injection, schedule: Q01DX009 (ip), vehicle: saline with Tween-80
[10] = dose: 200.0 mg/kg/injection, schedule: Q01DX009 (ip), vehicle: saline with Tween-80

Cc1cnn(C(C(=O)c2ccccc2)c2ccccc2)c1-c1ccccc1 (stereo not given)
T/C [1]: 105 % of control
T/C [2]: 105 % of control
T/C [3]: 98 % of control

COc1cc2cc[n+]3c(C)c4ccc(OC)c(OC)c4cc3c2cc1OC (tested in a mixture with another compound)
T/C (dose: 20.0 mg/kg/injection, schedule: Q01DX009 (ip), vehicle: saline): 150 % of control
T/C (dose: 40.0 mg/kg/injection, schedule: Q01DX009 (ip), vehicle: saline): 154 % of control and 166 % of control

CC(=O)CC1C=CCC(CC(O)c2ccccc2)N1C (stereo not given)
T/C (dose: 12.5 mg/kg/injection, schedule: Q01DX005 (ip), vehicle: saline): 100 % of control
T/C (dose: 25.0 mg/kg/injection, schedule: Q01DX005 (ip), vehicle: saline): 105 % of control
T/C (dose: 50.0 mg/kg/injection, schedule: Q01DX005 (ip), vehicle: saline): 105 % of control

Cc1c(N)nc([C@H](CC(N)=O)NC[C@H](N)C(N)=O)nc1C(=O)N[C@H](C(=O)N[C@H](C)[C@@H](O)CC(=O)N[C@H](C(=O)NC(O[C@@H]1O[C@@H](C)[C@@H](N)[C@@H](O)[C@H]1O)C(O)c1nc(-c2nc(C(=O)NCCCCN)cs2)cs1)[C@@H](C)O)[C@@H](O[C@@H]1O[C@@H](CO)[C@@H](O)[C@H](O)[C@@H]1O[C@H]1O[C@H](CO)[C@@H](O)[C@H](OC(N)=O)[C@@H]1O)c1c[nH]cn1 (stereo not given in full)
T/C (dose: 0.5 mg/kg/injection, schedule: Q01DX009 (ip), vehicle: water): 101 % of control
T/C (dose: 1.0 mg/kg/injection, schedule: Q01DX009 (ip), vehicle: water): 98 % of control
T/C (dose: 2.0 mg/kg/injection, schedule: Q01DX009 (ip), vehicle: water): 124 % of control
T/C (dose: 4.0 mg/kg/injection, schedule: Q01DX009 (ip), vehicle: water): 95 % of control
T/C (dose: 8.0 mg/kg/injection, schedule: Q01DX009 (ip), vehicle: water): 123 % of control

Cn1nc(-c2ccc(S(=O)(=O)F)cc2)s/c1=N/NC(=O)c1ccccc1
T/C (dose: 60.0 mg/kg/injection, schedule: Q01DX005 (ip), vehicle: Klucel + Tween-80): 87 % of control
T/C (dose: 120.0 mg/kg/injection, schedule: Q01DX005 (ip), vehicle: Klucel + Tween-80): 92 % of control

C=C(C)c1cc(C(C)(C)C)cc(C(C)(C)O)c1S(C)(=O)=O
T/C (dose: 100.0 mg/kg/injection, schedule: Q04DX003 (ip), vehicle: Klucel (hydroxypropylcellulose) (HPC)): 97 % of control
T/C [4]: 98 % of control
T/C (dose: 400.0 mg/kg/injection, schedule: Q04DX003 (ip), vehicle: Klucel (hydroxypropylcellulose) (HPC)): 95 % of control

CCCC(=O)O.CCCC(=O)O.CCCC(=O)O.CCCC(=O)O.[Rh].[Rh]
T/C (dose: 0.12 mg/kg/injection, schedule: Q01DX009 (ip), vehicle: saline + alcohol): 116 % of control
T/C (dose: 0.25 mg/kg/injection, schedule: Q01DX009 (ip), vehicle: saline + alcohol): 106 % of control and 122 % of control
T/C (dose: 15.63 micrograms/kg/injection, schedule: Q08HX018 (ip), vehicle: saline + alcohol): 118 % of control
T/C (dose: 31.25 micrograms/kg/injection, schedule: Q01DX009 (ip), vehicle: saline + alcohol): 107 % of control
T/C (dose: 31.25 micrograms/kg/injection, schedule: Q08HX018 (ip), vehicle: saline + alcohol): 118 % of control
T/C (dose: 62.5 micrograms/kg/injection, schedule: Q08HX018 (ip), vehicle: saline + alcohol): 101 % of control
T/C (dose: 125.0 micrograms/kg/injection, schedule: Q01DX009 (ip), vehicle: saline + alcohol): 114 % of control
T/C (dose: 125.0 micrograms/kg/injection, schedule: Q08HX018 (ip), vehicle: saline + alcohol): 113 % of control
T/C (dose: 250.0 micrograms/kg/injection, schedule: Q01DX009 (ip), vehicle: saline + alcohol): 115 % of control
T/C (dose: 250.0 micrograms/kg/injection, schedule: Q08HX018 (ip), vehicle: saline + alcohol): 114 % of control
T/C (dose: 500.0 micrograms/kg/injection, schedule: Q01DX009 (ip), vehicle: saline + alcohol): 122 % of control

CCCCCCCCCCCCCCCC(=O)N(CCC#N)C(C)(C)CCC(C)(C)N(CCC#N)C(=O)CCCCCCCCCCCCCCC
T/C (dose: 12.5 mg/kg/injection, schedule: Q01DX009 (ip), vehicle: Klucel (hydroxypropylcellulose) (HPC)): 99 % of control
T/C (dose: 12.5 mg/kg/injection, schedule: Q04DX003 (ip), vehicle: Klucel (hydroxypropylcellulose) (HPC)): 88 % of control
T/C (dose: 25.0 mg/kg/injection, schedule: Q01DX009 (ip), vehicle: Klucel (hydroxypropylcellulose) (HPC)): 98 % of control
T/C (dose: 25.0 mg/kg/injection, schedule: Q04DX003 (ip), vehicle: Klucel (hydroxypropylcellulose) (HPC)): 88 % of control
T/C [1]: 97 % of control
T/C [2]: 91 % of control
T/C [3]: 91 % of control
T/C [4]: 94 % of control

COC(=O)c1cc(=O)n2cnc3c(ncn3C3OC(CO)C(O)C3O)c2c1 (stereo not given)
T/C [5]: 98 % of control
T/C [6]: 100 % of control
T/C [7]: 100 % of control

COC(=O)C(Cc1ccccc1)NC(=O)C(Cc1ccccc1)NC(=O)CNC(=O)C(CSC(c1ccccc1)c1ccccc1)NC(=O)C(CSC(c1ccccc1)(c1ccccc1)c1ccccc1)NC(=O)OCc1ccccc1 (stereo not given) (Cbz-C(Trt)C(Benzhydryl)GFF-OMe; configuration not given here)
T/C (dose: 100.0 mg/kg/injection, schedule: Q04DX002 (ip), vehicle: Klucel (hydroxypropylcellulose) (HPC)): 88 % of control
T/C (dose: 200.0 mg/kg/injection, schedule: Q04DX002 (ip), vehicle: Klucel (hydroxypropylcellulose) (HPC)): 98 % of control
T/C (dose: 400.0 mg/kg/injection, schedule: Q04DX002 (ip), vehicle: Klucel (hydroxypropylcellulose) (HPC)): 98 % of control

Cc1cc(Nc2ccc(O)cc2)nc(N)n1
T/C (dose: 50.0 mg/kg/injection, schedule: Q01DX005 (ip), vehicle: saline with Tween-80): 105 % of control
T/C (dose: 100.0 mg/kg/injection, schedule: Q01DX005 (ip), vehicle: saline with Tween-80): 99 % of control
T/C (dose: 200.0 mg/kg/injection, schedule: Q01DX005 (ip), vehicle: saline with Tween-80): 113 % of control

O=C(O)c1ccccc1Oc1ccccc1C(=O)O
T/C [5]: 100 % of control
T/C [6]: 100 % of control
T/C [7]: 100 % of control

O=C1NC(=O)C2C1C1C(=O)NC(=O)C21 (stereo not given)
T/C (dose: 25.0 mg/kg/injection, schedule: Q01DX009 (ip), vehicle: saline with Tween-80): 94 % of control
T/C [8]: 94 % of control
T/C [9]: 103 % of control

C(#CCOc1ccc2c(c1)OCO2)COc1ccc2c(c1)OCO2
T/C (dose: 50.0 mg/kg/injection, schedule: Q01DX009 (ip), vehicle: other): 103 % of control
T/C (dose: 100.0 mg/kg/injection, schedule: Q01DX009 (ip), vehicle: other): 104 % of control
T/C (dose: 200.0 mg/kg/injection, schedule: Q01DX009 (ip), vehicle: other): 105 % of control

CCOC(=O)C(C(C)=O)C(=O)C(C)(C)C (stereo not given)
T/C (dose: 6.25 mg/kg/injection, schedule: Q01DX009 (ip), vehicle: saline): 112 % of control
T/C (dose: 12.5 mg/kg/injection, schedule: Q01DX009 (ip), vehicle: saline): 102 % of control
T/C (dose: 25.0 mg/kg/injection, schedule: Q01DX009 (ip), vehicle: saline): 102 % of control
T/C [9]: 91 % of control
T/C [10]: 104 % of control

Clc1ccc(-c2c(-c3ccccc3)c3n(c2Sc2ccccc2)CCC3)cc1
T/C (dose: 60.0 mg/kg/injection, schedule: Q01DX005 (ip), vehicle: Klucel (hydroxypropylcellulose) (HPC)): 92 % of control
T/C (dose: 120.0 mg/kg/injection, schedule: Q01DX005 (ip), vehicle: Klucel (hydroxypropylcellulose) (HPC)): 89 % of control
T/C (dose: 240.0 mg/kg/injection, schedule: Q01DX005 (ip), vehicle: Klucel (hydroxypropylcellulose) (HPC)): 86 % of control

Cc1ccc2c(c1)C1(SCC(=O)N1c1ccc(Cl)cc1)C(=O)N2 (stereo not given)
T/C (dose: 60.0 mg/kg/injection, schedule: Q01DX005 (ip), vehicle: saline with Tween-80): 101 % of control
T/C (dose: 120.0 mg/kg/injection, schedule: Q01DX005 (ip), vehicle: saline with Tween-80): 100 % of control
T/C (dose: 240.0 mg/kg/injection, schedule: Q01DX005 (ip), vehicle: saline with Tween-80): 100 % of control

Fc1ccc(C2SCCCS2)cc1
T/C (dose: 50.0 mg/kg/injection, schedule: Q01DX009 (ip), vehicle: saline): 92 % of control
T/C (dose: 100.0 mg/kg/injection, schedule: Q01DX009 (ip), vehicle: saline): 92 % of control
T/C (dose: 200.0 mg/kg/injection, schedule: Q01DX009 (ip), vehicle: saline): 101 % of control

Cc1ccc(C2(C(=O)O)CC2)cc1
T/C [9]: 100 % of control
T/C [10]: 100 % of control
T/C (dose: 400.0 mg/kg/injection, schedule: Q01DX009 (ip), vehicle: saline with Tween-80): 90 % of control

NC(=S)N/N=C\C(=O)c1cccc([N+](=O)[O-])c1
T/C [8]: 94 % of control
T/C [9]: 105 % of control
T/C [10]: 96 % of control
